# BindingDB's records for doi:10.1021/acsmedchemlett.4c00023 (n/a, 2024)
# Molecular target: Mitogen-activated protein kinase kinase kinase kinase 1 (Homo sapiens, UniProt Q92918)
# Assay: Inhibition of full length recombinant human N-terminal GST-tagged HPK1 expressed in baculovirus infected Sf21 insect cells preincubated for 15 mins followed by MBP and ATP addition measured after 120 mins by ADP-Glo reagent based assay
# Chain of Mitogen-activated protein kinase kinase kinase kinase 1 (Q92918 whole entry): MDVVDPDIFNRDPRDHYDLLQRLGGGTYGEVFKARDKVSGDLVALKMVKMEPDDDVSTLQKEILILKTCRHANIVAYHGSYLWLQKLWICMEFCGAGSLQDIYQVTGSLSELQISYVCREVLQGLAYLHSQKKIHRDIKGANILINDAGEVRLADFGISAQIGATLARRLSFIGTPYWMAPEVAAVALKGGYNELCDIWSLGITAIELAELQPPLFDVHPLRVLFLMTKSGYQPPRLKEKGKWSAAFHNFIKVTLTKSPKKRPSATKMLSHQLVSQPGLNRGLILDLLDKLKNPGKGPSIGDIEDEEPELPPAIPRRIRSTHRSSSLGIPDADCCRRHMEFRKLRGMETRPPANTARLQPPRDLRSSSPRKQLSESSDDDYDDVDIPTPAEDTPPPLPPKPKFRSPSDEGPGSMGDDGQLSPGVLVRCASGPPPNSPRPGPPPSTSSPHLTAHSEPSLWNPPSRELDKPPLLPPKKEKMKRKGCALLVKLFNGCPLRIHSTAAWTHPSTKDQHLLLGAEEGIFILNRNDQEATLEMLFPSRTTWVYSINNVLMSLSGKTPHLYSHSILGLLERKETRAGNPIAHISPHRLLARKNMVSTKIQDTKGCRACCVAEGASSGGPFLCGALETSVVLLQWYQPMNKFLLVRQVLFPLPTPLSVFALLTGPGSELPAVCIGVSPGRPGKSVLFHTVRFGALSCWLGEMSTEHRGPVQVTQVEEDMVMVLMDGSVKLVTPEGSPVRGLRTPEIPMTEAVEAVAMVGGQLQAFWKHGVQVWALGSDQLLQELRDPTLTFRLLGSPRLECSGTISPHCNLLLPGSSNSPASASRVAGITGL
row,SMILES,IC50 [µM]
1,"Cc1c(N2CCc3cnc(Nc4ccc(N5CCN(C)CC5)cc4)nc3C2)cnc2c1NCCO2 [US20240025922, Example 55]",< 0.1
2,"Cc1c(N2CCc3cnc(Nc4ccc(Cn5nccn5)cc4)nc3C2)cnc2c1NCCO2 [US20240025922, Example 185]",< 0.1
3,"Cc1c(N2CCc3cnc(Nc4ccc(Cn5cccn5)cc4)nc3C2)cnc2c1NCCO2 [US20240025922, Example 187]",< 0.1

# Other lines, results leading:
row,IC50 [µM],SMILES
1,< 0.1,"Cc1c(N2CCc3cnc(Nc4ccc5c(c4)CCOC5)nc3C2)cnc2c1NCCO2 [US20240025922, Example 84]"
2,< 0.1,"COC1CCN(c2ccc(Nc3ncc4c(n3)CN(c3cnc5c(c3C)NCCO5)CC4)cc2)CC1 [US20240025922, Example 113]"
3,< 0.1,"CCc1c(N2CCc3cnc(Nc4ccc(CS(C)(=O)=O)cc4)nc3C2)cnc2c1NCCO2 [US20240025922, Example 145]"
